Measurements taken from patent US11135184B2, “Formulations for epidermal repair” (CLARIDEI LABORATORIES, INC., priority 2013, dated 2021).

How the values were obtained:
[1] = tested on: lymphocytic transformation; settings: cited from earlier work
[2] = tested on: 3′-5′ cyclic AMP phosphodiesterase; settings: cited from earlier work
[3] = tested on: serine palmitoyltransferase; settings: cited from earlier work
[4] = tested on: atopic dry skin; settings: cited from earlier work
[5] = tested on: cutaneous lupus erythematosus; assay: prior treatment of a patient with cutaneous lupus erythematosus; assay type: in vivo, human; settings: one patient
From the text: A patient presented with a three year history of cutaneous lupus erythematosus. They had been suffering from systemic lupus erythematosus for some time before the rash that is characteristic of cutaneous lupus erythematosus appeared on their chest, arms, neck and face.
Prior to treatment with a treatment regime utilizing the formulations of the present disclosure, this patient had been treated with several different treatment regimens representing the standard of care for cutaneous lupus erythematosus patients. […] All attempts to reduce the patient's suffering from cutaneous lupus erythematosus had brought little to no relief.

[6] = tested on: histamine-induced scratching behavior; settings: applied to the skin of mice; cited from earlier work
[7] = tested on: guinea pig ileum; settings: cited from earlier work
[8] = tested on: NF-kappaB; settings: histamine-stimulated skin; cited from earlier work
[9] = tested on: 11β-hydroxysteroid dehydrogenase; settings: cited from earlier work
[10] = target: T1, Δ4β-reductase (Homo sapiens, UniProt P51857); settings: in vitro; cited from earlier work
T1 sequence (P51857 1-326): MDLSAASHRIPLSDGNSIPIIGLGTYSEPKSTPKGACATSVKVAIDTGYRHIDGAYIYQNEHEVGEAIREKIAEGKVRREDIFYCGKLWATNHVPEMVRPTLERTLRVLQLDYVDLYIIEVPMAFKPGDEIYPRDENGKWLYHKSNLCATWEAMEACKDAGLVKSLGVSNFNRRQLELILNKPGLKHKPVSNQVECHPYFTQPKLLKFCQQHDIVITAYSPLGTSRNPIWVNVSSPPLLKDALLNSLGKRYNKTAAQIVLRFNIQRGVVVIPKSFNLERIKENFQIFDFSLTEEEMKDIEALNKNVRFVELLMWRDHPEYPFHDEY

[11] = tested on: ultraviolet radiation damage; settings: in vitro model of cutaneous photoaging; cited from earlier work
[12] = cited from earlier work
[13] = tested on: contact dermatitis; settings: mice, cited from earlier work
[14] = tested on: Staphylococcus aureus; settings: in vitro; cited from earlier work
[15] = tested on: Candida albicans; settings: in vitro; cited from earlier work
[16] = tested on: Mycobacterium smegmatis; settings: in vitro; cited from earlier work

NC(=O)c1cccnc1 [Niacinamide]
antigen-induced lymphocytic transformation [1]: suppress
inhibition of 3′-5′ cyclic AMP phosphodiesterase [2]: Inhibit
de novo synthesis of ceramides (e.g., glucosylceramide and sphingomyelin) [3]: stimulating
expression of serine palmitoyltransferase [3]: up-regulated
transepidermal water loss ([4]; atopic dermatitis): decrease
moisturizer effectiveness compared with white petrolatum ([4]; atopic dry skin): more effective moisturizer than white petrolatum

CCN(CC)CCCC(C)Nc1ccnc2cc(Cl)ccc12 (centres unmarked) [chloroquin]
effect on cutaneous lupus erythematosus ([5]; orally administered): little or no effect

CCCCCCCCCCCCCCCCCC(=O)N[C@@H](CO)[C@H](O)[C@H](O)CCCCCCCCCCCCCC [N-stearoyl-phytosphingosine, N-Stearoyl-phytosphingosine]
histamine-induced scratching behavior [6]: effectively inhibited
anti-histamine effects in the Magnus test [7]: potent anti-histamine effects
activation of the transcription factor NF-kappaB [8]: inhibited

CC1(C)[C@@H](O)CC[C@]2(C)[C@H]3C(=O)C=C4[C@@H]5C[C@@](C)(C(=O)O)CC[C@]5(C)CC[C@@]4(C)[C@]3(C)CC[C@@H]12 [glycyrrhetinic acid, 18β-glycyrrhetinic acid]
inhibition of 11β-hydroxysteroid dehydrogenase [9]: inhibit
inhibition of Δ4β-reductase [10]: inhibit

O=C1O[C@H](CO)[C@@H](O)[C@H](O)[C@H]1O [glucono delta-lactone, Glucono delta-lactone]
protection against ultraviolet radiation [11]: photoprotective activity

C[C@]12C=CC(=O)C=C1CC[C@@H]1[C@@H]2C(=O)C[C@@]2(C)[C@H]1CC[C@]2(O)C(=O)CO [prednisone]
effect on cutaneous lupus erythematosus ([5]; orally administered): little or no effect

C[C@]12CCC(=O)C=C1CC[C@@H]1[C@@H]2C(=O)C[C@@]2(C)[C@H]1CC[C@]2(O)C(=O)CO [cortisone]
effect on cutaneous lupus erythematosus ([5]; shots): little or no effect

C[C@H](CCC(=O)O)[C@H]1CC[C@H]2[C@@H]3[C@H](O)C[C@@H]4C[C@H](O)CC[C@]4(C)[C@H]3CC[C@]12C [chenodeoxycholic acid]
inhibition of 11β-hydroxysteroid dehydrogenase [9]: inhibits

O=C(O)[C@H](O)[C@@H](O)[C@H](O[C@@H]1O[C@H](CO)[C@H](O)[C@H](O)[C@H]1O)[C@H](O)CO [Lactobionic acid, 4-O-β-galactopyranosyl-β-gluconic acid]
pKa [12]: 3.8

CCCCCCCCCCCCCC[C@@H](O)[C@@H](O)[C@@H](N)CO [phytosphingosine, Phytosphingosine]
histamine-induced scratching behavior [6]: effectively inhibited
anti-histamine effects in the Magnus test [7]: potent anti-histamine effects
activation of the transcription factor NF-kappaB [8]: inhibited

CC1(C)[C@@H](OC(=O)CCC(=O)O)CC[C@]2(C)[C@H]3C(=O)C=C4[C@@H]5C[C@@](C)(C(=O)O)CC[C@]5(C)CC[C@@]4(C)[C@]3(C)CC[C@@H]12 [Carbenoxolone]
inhibition of 11β-hydroxysteroid dehydrogenase [9]: inhibits

CC1(C)[C@@H](O[C@H]2O[C@H](C(=O)O)[C@@H](O)[C@H](O)[C@H]2O[C@@H]2O[C@H](C(=O)O)[C@@H](O)[C@H](O)[C@H]2O)CC[C@]2(C)[C@H]3C(=O)C=C4[C@@H]5C[C@@](C)(C(=O)O)CC[C@]5(C)CC[C@@]4(C)[C@]3(C)CC[C@@H]12 [glycyrrhizic acid, Glycyrrhizic acid]
effect on contact dermatitis ([13]; administered orally): ineffective
effectiveness against contact dermatitis compared with prednisolone ([13]; given intraperitoneally): more effective than prednisolone
suppression of contact dermatitis ([13]; given intraperitoneally): suppress
growth of Staphylococcus aureus [14]: inhibit the growth
growth of Candida albicans [15]: inhibit the growth
growth of Mycobacterium smegmatis [16]: inhibit the growth

CCN(CCO)CCCC(C)Nc1ccnc2cc(Cl)ccc12.O=S(=O)(O)O (centres unmarked) [plaquenyl]
effect on cutaneous lupus erythematosus ([5]; orally administered): little or no effect

CC(=O)Oc1ccccc1C(=O)O [aspirin]
effect on cutaneous lupus erythematosus ([5]; orally administered): little or no effect
